Measured values taken from patent US20120178147A1, “MICROBIAL CULTURES AND METHODS FOR ANAEROBIC BIOREMEDIATION” (priority 2009, published 2012).

Test system: DehaloR̂2 cultures
Experiment: TCC and TCS exposure: TCE reductive dechlorination by DehaloR̂2 culture
Type: cell-based
Conditions: for TCE completely dechlorinated into ethene in the 22-day period in DehaloR̂2: 1.5 μM TCC (32 μmol TCE) or 35 μM TCS
Description: Cultures. Two cultures were used in this study: 1) Bio-Dechlor INOCULUM, which was obtained from Dr. Frank Loffler's laboratory at Georgia Tech; 2) DehaloR̂2 culture, developed from a sediment microcosm from the Chesapeake Bay “sediment core-D” with three-times continuous transfers described in Example 1.
TCC and TCS Exposure. For the TCC and TCS test, 1 ml ATCC mixed vitamin solution (Catalog No. MD-VS), 0.25 ml 20 mg/L vitamin B12 solution and 1 ml 500 mM lactate solution were filtered with a 0.2 μm sterile filter and added to 92.5 ml sterile anaerobic media in 160 ml serum bottles, and then 5 ml of culture was transferred into this fresh media. Lactate served as electron donor and carbon source. Fifty μl TCE stock solutions ([…] in methanol) were injected into the media with 500-μl Hamilton air-tight syringe (Reno, Nev.), and the final TCE concentration was 35 μmol per serum bottle. Ten μl TCC or TCS stock solutions in methanol or pure methanol was injected with 10 μl Hamilton air-tight syringe (Reno, Nev.) into the serum bottle. Three concentration levels of TCC or TCS stock solutions were made and listed in Table 8 to make the three final concentration levels of TCC or TCS. The middle concentration level of TCC and TCS in cultures was set according to the solubility of TCC and TCS at 20° C. The highest concentration of TCC and TCS is 10 times the solubility of TCC and TCS at 20° C., and the lowest concentration of TCC and TCS is 10% the solubility of TCC and TCS at 20° C.
The total aqueous volume in 160-ml serum bottle was 100 ml. Four BDI and four DehaloR̂2 cultures were generated for each concentration of TCC or TCS, and three of them were used for TCE dechlorination analysis and the other one was used for DNA extractions and molecular analysis. The error bars in the figures are the standard deviations for three independent cultures under the same conditions.
The TCC and TCS tests on DehaloR̂2 culture were only dosed with the highest and middle concentrations of TCC and TCS, which are 1.5 μM TCC, 0.15 μM TCC, 35 μM TCS and 3.5 μM TCS, respectively.
All cultures were stored in the dark and incubated at 30° C.
Analytical Methods. The concentrations of TCE and their reductive-dechlorinating byproducts, 1,1-DCE, cis-DCE, trans-DCE, VC, and ethene were quantified by gas chromatography with a flame ionization detector (GC-FID).
200 μl headspace gas samples were withdrawn from 160 ml serum bottle with 500 μl gas-tight syringes (Hamilton Company, Reno, Nev.) and analyzed by a Shimadzu GC-2010 (Columbia, Md.) with an Rt™-QSPLOT capillary column (30 m×0.32 mm×10 μm, Restek, Bellefonte, Pa.) and a flame ionization detector (FID). The initial oven temperature was 110° C. and was held constant for 5 min. Then the temperature was raised with a gradient of 10° C./min to 150° C., a second gradient at 20° C./min to 200° C., and a third gradient of 5° C./min to 220° C. At the end of this gradient, the oven temperature was held constant at 220° C. for 5 min. The temperature of FID and injector were 240° C. Ultra high purity helium was the carrier gas for the GC. Ultra high purity hydrogen and zero grade air were used for the FID.
Calibration curves for chlorinated compounds were determined based on the known mass of PCE, TCE, 1,1-DCE, cis-DCE and trans-DCE added to 160 ml serum bottles containing 100 ml of distilled-deionized water and equilibrated at 25° C. overnight. The contents were then analyzed using the Shimadzu GC-FID. Different volumes of 100 ppm and 1000 ppm VC and ethene gas were injected directly into GC using the 500 μl airtight syringe to make their calibration curves. The aqueous concentrations of PCE, TCE and their reaction products were calculated by using reported Henry's constants on the EPA website (Washington and Weaver, 2006)

[1] = highest level: 1.5 μM TCC or 35 μM TCS
[2] = middle level: 0.15 μM TCC or 3.5 μM TCS

SMILES | TCE completely dechlorinated into ethene in the 22-day period in DehaloR̂2 | Maximum formation rate VC in DehaloR̂2 (SCD) [1] [μmol vial^−1 day^−1] | Maximum formation rate cis-DCE in DehaloR̂2 (SCD) [1] [μmol vial^−1 day^−1] | Maximum utilization rate TCE in DehaloR̂2 (SCD) [1] [μmol vial^−1 day^−1] | effect on TCE reductive dechlorination in DehaloR̂2 cultures [1] | Maximum formation rate Ethene in DehaloR̂2 (SCD) [2] [μmol vial^−1 day^−1] | Maximum formation rate VC in DehaloR̂2 (SCD) [2] [μmol vial^−1 day^−1] | Maximum formation rate cis-DCE in DehaloR̂2 (SCD) [2] [μmol vial^−1 day^−1] | Maximum utilization rate TCE in DehaloR̂2 (SCD) [2] [μmol vial^−1 day^−1] | Maximum utilization rate VC in DehaloR̂2 (SCD) [2] [μmol vial^−1 day^−1] | Maximum utilization rate cis-DCE in DehaloR̂2 (SCD) [2] [μmol vial^−1 day^−1] | effect on TCE reductive dechlorination in DehaloR̂2 cultures [2] | other results
O=C(Nc1ccc(Cl)cc1)Nc1ccc(Cl)c(Cl)c1 [TCC, 3-(4-chlorophenyl)-1-(3,4-dichlorphenyl) urea] | About 46% | 8.12 | 12.83 | 9.54 | significantly inhibited TCE reductive dechlorination | 8.54 | 6.72 | 23.87 | 20.45 | 6.01 | 6.40 | slowed down the TCE reductive dechlorination process | time for complete TCE reductive dechlorination in DehaloR̂2 (0.15 μM TCC): approximately 22 days; time for reductive dechlorination of 80% of 33 μmol TCE into ethene in DehaloR̂2 (0.15 μM TCC): 11 days; time for reductive dechlorination of TCE to cis-DCE in DehaloR̂2 (1.5 μM TCC): about 4 days; Maximum formation rate Ethene in DehaloR̂2 (SCD) (highest level: 1.5 μM TCC): 1.08 μmol vial^−1 day^−1; Maximum utilization rate VC in DehaloR̂2 (SCD) (highest level: 1.5 μM TCC): 1.48 μmol vial^−1 day^−1; Maximum utilization rate cis-DCE in DehaloR̂2 (SCD) (highest level: 1.5 μM TCC): 9.55 μmol vial^−1 day^−1
Oc1cc(Cl)ccc1Oc1ccc(Cl)cc1Cl [TCS, 5-chloro-2-[2,4-dichloro-phenoxy]-phenol] | no ethene was produced | 0.11 | 5.59 | 5.90 | significantly inhibited TCE reductive dechlorination | 3.11 | 8.99 | 8.79 | 13.47 | 1.96 | 9.10 | slowed down the TCE reductive dechlorination process | time for TCE reductive dechlorination to cis-DCE in DehaloR̂2 (3.5 μM TCS): about 4 days; TCE completely dechlorinated into ethene at the 18th day in DehaloR̂2 (3.5 μM TCS, 34 μmol TCE): 79%; TCE transformed into VC within 22 days in DehaloR̂2 (35 μM TCS): 1%
